Assay results: PubChem BioAssay (NCI)
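Compound exposure: 48 hours, 5 concentrations, 96-well plates. GI50 is the concentration that inhibits growth by half. Definition used: TGI = concentration required for complete inhibition of growth.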

Key:
Assay in all cases: DTP human tumour cell line panel, 48 h
A549 NSCLC = tested on: A549 NSCLC
BT-549 breast = tested on: BT-549 breast
CCRF-CEM leukemia = tested on: CCRF-CEM leukemia
DU-145 prostate = tested on: DU-145 prostate
EKVX NSCLC = tested on: EKVX NSCLC
KM12 colon = tested on: KM12 colon
MDA-MB-435 = tested on: MDA-MB-435
NCI/ADR-RES ovarian = tested on: NCI/ADR-RES ovarian
SF-268 CNS = tested on: SF-268 CNS
U251 CNS = tested on: U251 CNS

SMILES | GI50 (A549 NSCLC) | TGI (A549 NSCLC) | GI50 (BT-549 breast) | TGI (BT-549 breast) | GI50 (CCRF-CEM leukemia) | TGI (CCRF-CEM leukemia) | GI50 (DU-145 prostate) | TGI (DU-145 prostate) | GI50 (EKVX NSCLC) | TGI (EKVX NSCLC) | GI50 (KM12 colon) | TGI (KM12 colon) | GI50 (MDA-MB-435) | TGI (MDA-MB-435) | GI50 (NCI/ADR-RES ovarian) | TGI (NCI/ADR-RES ovarian) | GI50 (SF-268 CNS) | TGI (SF-268 CNS) | GI50 (U251 CNS) | TGI (U251 CNS)
O=C(Nc1ccc(F)cc1)Nc1ccccc1CNc1nc(Nc2ccc(OCCN3CCCC3)cc2)ncc1Cl | 2.72 µM | 20.9 µM | 5.15 µM | 11.2 µM | 1.6 µM | 5.93 µM | 2.48 µM | 8.06 µM | 2.22 µM | 9.82 µM | 1.81 µM | 6.35 µM | 1.03 µM | 2.28 µM | 2.59 µM | 10.4 µM | 1.26 µM | 4.84 µM | 1.28 µM | 3.73 µM
CC(C)Nc1ccc(Nc2ccccc2)cc1 | 26.2 µM | > 100 µM | 11.3 µM | 33.9 µM | 12.5 µM | > 100 µM | 26.2 µM | > 100 µM | 12.8 µM | 44.7 µM | 22.4 µM | > 100 µM | 15.4 µM | 46 µM | 9.8 µM | 65.3 µM | 17 µM | 50.4 µM | 12.8 µM | 32 µM
Nc1cc(C(=O)O)[nH]c(=O)n1 |  | > 100 µM |  | > 100 µM |  | > 100 µM |  | > 100 µM |  | > 100 µM |  | > 100 µM |  | > 100 µM |  | > 100 µM |  | > 100 µM |  | > 100 µM
CCCc1cc(O)c2c3c(c(=O)oc2c1)CN(C)CC3 | > 100 µM | > 100 µM | 48.1 µM | > 100 µM | 69.1 µM | > 100 µM | > 100 µM | > 100 µM | > 100 µM | > 100 µM | 87.3 µM | > 100 µM | 43.5 µM | > 100 µM | > 100 µM | > 100 µM | > 100 µM | > 100 µM | 56.4 µM | > 100 µM
CC(=O)N1N=C(c2ccc(Nc3nc(Nc4ccc(Cl)cc4)nc(Nc4ccc(Cl)cc4)n3)cc2)CC1c1ccc([N+](=O)[O-])cc1 (centres undefined) | 5.57 µM | > 86.5 µM | 10.6 µM | 88.9 µM | 2.92 µM | > 32.2 µM | 5.56 µM | > 54.9 µM | 4.22 µM | > 40.1 µM | 5.72 µM | > 62.4 µM | 4.59 µM | 36 µM | 5.41 µM | > 70.4 µM | 7.14 µM | > 100 µM | 7.42 µM | > 100 µM
Fc1ccc(-c2nn3c(-c4ccc(F)c(Cl)c4)nnc3s2)cc1 | 21.2 µM | > 50 µM | 33.2 µM | > 50 µM | 5.52 µM | 17.8 µM | 36.3 µM | > 50 µM | > 50 µM | > 50 µM | > 50 µM | > 50 µM | > 50 µM | > 50 µM | 23.8 µM | > 50 µM | 38.7 µM | > 50 µM | 18.5 µM | > 50 µM
COC(=O)C1=C(C)NC(C)=C(C(=O)OC)C1/C=C(\Cl)c1ccc(Cl)c(Cl)c1 | 11.9 µM | 24.4 µM | 16.6 µM | 32.2 µM | 5.55 µM | 31.6 µM | 16.5 µM | 32 µM | 10.7 µM | 24.9 µM | 15.4 µM | 31.5 µM | 15.1 µM | 32.1 µM | 16.4 µM | 30.8 µM | 13.1 µM | 28.4 µM | 14.1 µM | 27.1 µM
Cc1ccc(NC(=O)Cc2ccc(/C=C/C(=O)c3ncc[nH]3)cc2)cc1 | 9.14 µM | > 25 µM | 6.42 µM | > 25 µM | 4.67 µM | > 25 µM | 4.56 µM | > 25 µM | 13.5 µM | > 25 µM | 3.09 µM | 12.7 µM | 5.68 µM | > 25 µM | 6.73 µM | > 25 µM | 5.32 µM | > 25 µM | 1.59 µM | > 25 µM
CCOC(=O)/C(=N\OC)C(O)C(F)(F)F (centres undefined) |  | > 100 µM |  | > 100 µM |  | > 100 µM |  | > 100 µM |  | > 100 µM |  | > 100 µM |  | > 100 µM |  | > 100 µM |  | > 100 µM |  | > 100 µM
CC(=O)Nc1ccc(/C=C/C(=O)c2ccccc2)cc1 | 20.5 µM | 45.4 µM | 20.1 µM | 41.2 µM | 3.36 µM | 16.6 µM | 3.13 µM | 10.6 µM | 16.6 µM | 33.6 µM | 4.47 µM | 16 µM | 17.4 µM | 50.5 µM | 17.4 µM | 73.1 µM | 15.9 µM | 37.5 µM | 4.61 µM | 17.7 µM
N#C/C(=N\Nc1ccc(Cl)cc1)C(=O)Nc1cc(-c2ccccc2)nn1-c1ccccc1 | 3.2 µM | > 100 µM | 2.52 µM | 7.18 µM | 2.27 µM | > 100 µM | 3.9 µM | > 100 µM | 2.64 µM | > 100 µM | 2.92 µM | > 100 µM | 2.79 µM | > 100 µM | 3.09 µM | > 100 µM | 2.65 µM | > 100 µM | 3.08 µM | > 100 µM
CCOc1ccc(-c2cnnn2-c2nonc2-n2cccc2)cc1 | 0.388 µM | > 100 µM | 0.363 µM |  | 0.296 µM | > 100 µM | 0.286 µM | 0.905 µM | 0.569 µM | > 100 µM | 0.125 µM | 10.1 µM | 0.0345 µM | 0.168 µM | 0.139 µM | > 38.1 µM | 0.736 µM | > 100 µM | 0.339 µM | > 78.7 µM
CC(C)[C@H]1CC[C@H]2[C@@H](CC[C@H]3[C@](C)(CN)CCC[C@]23C)C1 | 2.18 µM | 4.23 µM | 15.6 µM | 37.5 µM | 3.42 µM | 12.8 µM | 1.95 µM | 3.58 µM | 4.11 µM | 17 µM | 1.79 µM | 3.18 µM | 2.13 µM | 4.69 µM | 2.08 µM | 3.93 µM | 2.36 µM | 6.04 µM | 1.67 µM | 3.08 µM
